According to patent publication US10112933B2, “Methods and compositions for treatment of fibrosis” (Baylor College of Medicine, priority 2013, dated 2018):

What follows are compounds tested against T1, Stat1 (pY701) (Homo sapiens, UniProt P42224) (assay: Immunoblot: IFN-γ-mediated phosphorylation of Stat1 in HepG2 cells). Settings: HepG2, compound 300 μM, 1 hour.
T1 construct: endogenous in cells; host or cells: HepG2
T1 sequence (P42224 1-750): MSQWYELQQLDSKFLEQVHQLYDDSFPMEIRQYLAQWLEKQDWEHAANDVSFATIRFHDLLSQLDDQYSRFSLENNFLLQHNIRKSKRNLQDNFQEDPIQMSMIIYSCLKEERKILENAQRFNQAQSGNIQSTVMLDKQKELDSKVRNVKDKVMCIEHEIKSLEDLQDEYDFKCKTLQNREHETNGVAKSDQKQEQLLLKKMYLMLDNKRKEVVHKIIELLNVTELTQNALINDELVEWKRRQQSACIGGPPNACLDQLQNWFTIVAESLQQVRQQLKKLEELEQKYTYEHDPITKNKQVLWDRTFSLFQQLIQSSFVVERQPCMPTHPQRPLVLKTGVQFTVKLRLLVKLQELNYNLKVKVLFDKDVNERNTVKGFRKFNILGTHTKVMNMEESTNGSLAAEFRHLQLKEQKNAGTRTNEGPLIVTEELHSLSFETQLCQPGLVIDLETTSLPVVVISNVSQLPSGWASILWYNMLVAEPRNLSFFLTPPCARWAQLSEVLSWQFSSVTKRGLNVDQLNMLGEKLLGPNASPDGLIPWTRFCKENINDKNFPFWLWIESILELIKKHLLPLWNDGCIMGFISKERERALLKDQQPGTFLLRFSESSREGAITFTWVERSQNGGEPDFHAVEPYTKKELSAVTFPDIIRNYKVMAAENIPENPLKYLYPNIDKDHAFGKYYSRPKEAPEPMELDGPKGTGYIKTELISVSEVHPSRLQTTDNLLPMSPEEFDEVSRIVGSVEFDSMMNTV
Assay type: cell-based
Description: HepG2 cells were pretreated with DMSO alone or DMSO containing each of the compounds at a concentration of 300 μM for 60 min. Cells were then stimulated with IFN-γ (30 ng/ml) for 30 min. Protein extracts of cells were separated by SDS-PAGE and immunoblotted serially with antibodies to pStat1, total Stat1 and β-actin. Blots were stripped between each immunoblotting. The results shown are representative of 2 or more experiments.
Immunoblot assay. The human hepatocellular carcinoma cell line (HepG2) was grown in 6-well plates under standard conditions. Cells were pretreated with compounds (0, 1, 3, 10, 30, 100 and 300 uM) for 1 hour then stimulated under optimal conditions with either interferon gamma (IFN-γ; 30 ng/ml for 30 min) to activate Stat1 or interleukin-6 (IL-6; 30 ng/ml for 30 min) to activate Stat3 (30-31). Cultures were then harvested and proteins extracted using high-salt buffer, as described (Shao et al., 2006). Briefly, extracts were mixed with 2× sodium dodecyl sulfate (SDS) sample buffer (125 mmol/L Tris-HCL pH 6.8; 4% SDS; 20% glycerol; 10% 2-mercaptoethanol) at a 1:1 ratio and heated for 5 minutes at 100° C. Proteins (20 μg) were separated by 7.5% SDS-PAGE and transferred to polyvinylidene fluoride (PVDF) membrane (Millipore, Waltham, Mass.) and immunoblotted. Prestained molecular weight markers (Biorad, Hercules, Calif.) were included in each gel. Membranes were probed serially with antibody against Stat1 pY^701 or Stat3 pY^705 followed by antibody against Stat1 or Stat3 (Transduction labs, Lexington, Ky.) then antibody against β-actin (Abcam, Cambridge, Mass.). Membranes were stripped between antibody probing using Restore™ Western Blot Stripping Buffer (Thermo Fisher Scientific Inc., Waltham, Mass.) per the manufacturer's instructions. Horseradish peroxidase-conjugated goat-anti-mouse IgG was used as the secondary antibody (Invitrogen Carlsbad, Calif.) and the membranes were developed with enhanced chemiluminescence (ECL) detection system (Amersham Life Sciences Inc.; Arlington Heights, Ill.).
EXP IIC. Ligand-mediated pStat3 and pStat1 inhibition assays. […] Briefly, human hepatocellular carcinoma cells (HepG2) are grown in 6-well plates and pretreated with compounds (0, 0.1, 0.3, 1, 3, 10, 30, 100 μM) for 1 hour then stimulated under optimal conditions with either interleukin-6 (IL-6; 30 ng/ml for 30 min) to activate Stat3 or interferon gamma (IFN-γ; 30 ng/ml for 30 min) to activate Stat1. Cells are harvested and proteins extracted using high-salt buffer, mixed with 2× sodium dodecyl sulfate (SDS) sample buffer (125 mmol/L Tris-HCL pH 6.8; 4% SDS; 20% glycerol; 10%2-mercaptoethanol) at a 1:1 ratio then heated for 5 minutes at 100° C. Proteins (20 μg) are separated by 7.5% SDS-PAGE and transferred to polyvinylidene fluoride (PVDF) membrane (Millipore, Waltham, Mass.) and immunoblotted. Membranes are probed serially with antibody against Stat1 pY701 or Stat3 pY705 followed by antibody against Stat1 or Stat3 (Transduction labs, Lexington, Ky.) then antibody against β-actin (Abcam, Cambridge, Mass.). Membranes are stripped between antibody probings using Restore™ Western Blot Stripping Buffer (Thermo Fisher Scientific Inc., Waltham, Mass.) per the manufacturer's instructions. Horseradish peroxidase-conjugated goat-anti-mouse IgG is used as the secondary antibody (Invitrogen Carlsbad, Calif.) and the membranes are developed with enhanced chemiluminescence (ECL) detection system (Amersham Life Sciences Inc.; Arlington Heights, Ill.). Band intensities are quantified by densitometry. The value of each pStat3 band is divided by its corresponding total Stat3 band intensity; the results are normalized to the DMSO-treated control value. This value was plotted as a function of the log compound concentration. The best-fitting curve is determined using 4-Parameter Logistic Model/Dose Response/XLfit 4.2, IDBS software and was used to calculate the IC50 value.
With `O=C(O)c1ccc(C=CC(=O)c2ccc3c(c2)OCCO3)cc1` [Cpd3, 4-[3-(2,3-dihydro-1,4-benzodioxin-6-yl)-3-oxo-1-propen-1-yl]benzoic acid] the “Stat1 phosphorylation after IFN-γ stimulation” value (shortened to “Stat1 phosphorylation”) was “did not”. In the case of `CCOc1cc(C=C2C(=O)c3ccccc3C2=O)cc(Cl)c1OCc1cccc(C(=O)O)c1` [Cpd3-2, 3-({2-chloro-4-[(1,3-dioxo-1,3-dihydro-2H-inden-2-ylidene)methyl]-6-ethoxyphenoxy}methyl)benzoic acid], the “Stat1 phosphorylation” value is reported as “did not”. In the case of `CCN1C(=O)C(=Cc2ccc(-c3cc(C(=O)O)ccc3Cl)o2)C(=O)N(CC)C1=S` [Cpd30-12, 4-chloro-3-{5-[(1,3-diethyl-4,6-dioxo-2-thioxotetrahydro-5(2H)-pyrimidinylidene)methyl]-2-furyl}benzoic acid], the “Stat1 phosphorylation” value is reported as “blocked Stat1 phosphorylation”.
